From patent US20140023611A1 (priority 2010, published 2014)

How the values were obtained:
[1] = target: T1, rat NaP2b (SLC34A2) (Rattus norvegicus, UniProt Q9JJ09); assay: Inhibition of NaP2b-mediated Pi (33P) uptake in transfected HEK293 cells, rat NaP2b; format: cell-based; details: 33P Pi uptake, 0.1 mM phosphate, value given as pIC50 range
T1 construct: host or cells: HEK293
T1 sequence (Q9JJ09 1-695): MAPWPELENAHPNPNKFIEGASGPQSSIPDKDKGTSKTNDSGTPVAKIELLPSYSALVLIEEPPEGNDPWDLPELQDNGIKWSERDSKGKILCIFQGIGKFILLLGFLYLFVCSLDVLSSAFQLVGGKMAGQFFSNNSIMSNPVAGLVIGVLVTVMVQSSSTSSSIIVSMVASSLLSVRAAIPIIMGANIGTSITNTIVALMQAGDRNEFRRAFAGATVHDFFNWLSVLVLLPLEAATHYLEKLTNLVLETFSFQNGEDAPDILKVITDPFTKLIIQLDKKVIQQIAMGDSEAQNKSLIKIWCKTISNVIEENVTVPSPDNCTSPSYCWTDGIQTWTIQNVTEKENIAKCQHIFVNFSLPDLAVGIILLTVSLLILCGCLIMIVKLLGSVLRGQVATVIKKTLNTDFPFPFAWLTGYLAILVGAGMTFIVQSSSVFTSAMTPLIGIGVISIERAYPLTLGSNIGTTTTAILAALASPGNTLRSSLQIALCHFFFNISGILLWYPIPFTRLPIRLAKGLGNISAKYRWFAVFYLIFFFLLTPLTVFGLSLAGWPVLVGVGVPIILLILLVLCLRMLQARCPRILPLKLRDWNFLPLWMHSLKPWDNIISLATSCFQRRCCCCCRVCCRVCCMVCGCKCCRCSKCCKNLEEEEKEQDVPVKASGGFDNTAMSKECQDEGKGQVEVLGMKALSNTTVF
Outline: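 HEK293 cells were transiently transfected with NaP2b cDNA using Lipofectamine and grown near confluence. Compounds were tested at twelve concentrations from 0.1 nM to 30 uM in duplicate, and 33P-phosphate uptake was counted by scintillation after lysis. Results are expressed as pIC50.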

[2] = Determination of compound Cmax and AUC after oral gavage (plasma LC-MS/MS); format: in vivo, Sprague-Dawley rats; details: Sprague-Dawley, rat, plasma, po, Structure (I) examples, Table 15, actual oral dose 3-15 mg/kg, plasma 0.5-4 h
Outline: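 Sprague-Dawley rats dosed by oral gavage at nominal 2.5 or 10 mg/kg; blood drawn at 0.5, 1, 2 and 4 h into K2EDTA. Plasma protein-precipitated with acetonitrile plus internal standard and analysed by LC-MS/MS against a plasma standard curve to derive Cmax and AUC.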

| IC50 [1] [nM] | AUC [2] [ng·h/mL] | Cmax [2] [ng/mL] | SMILES |
| --- | --- | --- | --- |
| < 1000 | < 10 | < 10 | CCN(CC)c1ccc(NC(=O)c2cccc(CSc3cccc(CC(=O)N(C)CCOCCOCCOCCC(=O)O)c3)c2)c(-c2cc(C(=O)NCc3cccc(C(F)(F)F)c3)ccn2)c1 [Example 144, 3-(2-(2-(2-(2-(3-(3-(4-(diethylamino)-2-(4-(3-(trifluoromethyl)benzylcarbamoyl)pyridin-2-yl)phenylcarbamoyl)benzylthio)phenyl)-N-methylacetamido)ethoxy)ethoxy)ethoxy)propanoic acid] |
| < 1000 | < 10 | < 10 | CCN(CC)c1ccc(NC(=O)c2cccc(CSCCOCCOCCOCCOCCC(=O)O)c2)c(-c2cc(C(=O)NCc3cccc(C(F)(F)F)c3)ccn2)c1 [Example 162, 1-(3-(4-(diethylamino)-2-(4-(3-(trifluoromethyl)benzylcarbamoyl)pyridin-2-yl)phenylcarbamoyl)phenyl)-5,8,11,14-tetraoxa-2-thiaheptadecan-17-oic acid] |
| < 1000 | < 10 | < 10 | O=C(O)CCOCCOCCOCCOCCSCc1cccc(C(=O)Nc2ccc(N3CCCCC3)cc2-c2cc(C(=O)N[C@H]3CCCc4ccccc43)ccn2)c1 [Example 142, 1-(3-{[4-(piperidin-1-yl)-2-(4-{[(1S)-1,2,3,4-tetrahydronaphthalen-1-yl]carbamoyl}pyridin-2-yl)phenyl]carbamoyl}phenyl)-5,8,11,14-tetraoxa-2-thiaheptadecan-17-oic acid] |
| 1000 to 7940 | < 10 | < 10 | CCN(CC)c1ccc(NC(=O)c2cccc(C(=O)N(C)CCOCCOCCOCCC(=O)O)c2)c(-c2cc(C(=O)NCc3cccc(C(F)(F)F)c3)ccn2)c1 [Example 188, 1-(3-((4-(diethylamino)-2-(4-((3-(trifluoromethyl)benzyl)carbamoyl)pyridin-2-yl)phenyl)carbamoyl)phenyl)-2-methyl-1-oxo-5,8,11-trioxa-2-azatetradecan-14-oic acid] |
| < 1000 | < 10 | < 10 | CCN(CC)c1ccc(NC(=O)c2cccc(CSCCOCCOCCOCCOCCOCCOCCOCCOC)c2)c(-c2cc(C(=O)N[C@H]3CCCc4ccccc43)ccn2)c1 [Example 286, (S)-2-(2-(3-(2,5,8,11,14,17,20,23-octaoxa-26-thiaheptacosan-27-yl)benzamido)-5-(diethylamino)phenyl)-N-(1,2,3,4-tetrahydronaphthalen-1-yl)isonicotinamide] |
